Data taken from ChEMBL document CHEMBL4359829, “Straightforward synthesis and biological evaluation as topoisomerase I inhibitors and antiproliferative agents of hybrid Chromeno[4,3-b][1,5]Naphthyridines and Chromeno[4,3-b][1,5]Naphthyridin-6-ones” (Eur J Med Chem, 2019).

Assays:
[1] = biological target: T1, DNA topoisomerase 1 (Homo sapiens) (UniProt P11387); test: Inhibition of recombinant human Top1 expressed in Saccharomyces cerevisiae null strain RS190 assessed as decrease in relaxation of supercoiled plasmid DNA at 100 uM using supercoiled plasmid DNA as substrate incubated for 3 min by red staining based DNA relaxation assay relative to camptothecin
T1 sequence (whole entry): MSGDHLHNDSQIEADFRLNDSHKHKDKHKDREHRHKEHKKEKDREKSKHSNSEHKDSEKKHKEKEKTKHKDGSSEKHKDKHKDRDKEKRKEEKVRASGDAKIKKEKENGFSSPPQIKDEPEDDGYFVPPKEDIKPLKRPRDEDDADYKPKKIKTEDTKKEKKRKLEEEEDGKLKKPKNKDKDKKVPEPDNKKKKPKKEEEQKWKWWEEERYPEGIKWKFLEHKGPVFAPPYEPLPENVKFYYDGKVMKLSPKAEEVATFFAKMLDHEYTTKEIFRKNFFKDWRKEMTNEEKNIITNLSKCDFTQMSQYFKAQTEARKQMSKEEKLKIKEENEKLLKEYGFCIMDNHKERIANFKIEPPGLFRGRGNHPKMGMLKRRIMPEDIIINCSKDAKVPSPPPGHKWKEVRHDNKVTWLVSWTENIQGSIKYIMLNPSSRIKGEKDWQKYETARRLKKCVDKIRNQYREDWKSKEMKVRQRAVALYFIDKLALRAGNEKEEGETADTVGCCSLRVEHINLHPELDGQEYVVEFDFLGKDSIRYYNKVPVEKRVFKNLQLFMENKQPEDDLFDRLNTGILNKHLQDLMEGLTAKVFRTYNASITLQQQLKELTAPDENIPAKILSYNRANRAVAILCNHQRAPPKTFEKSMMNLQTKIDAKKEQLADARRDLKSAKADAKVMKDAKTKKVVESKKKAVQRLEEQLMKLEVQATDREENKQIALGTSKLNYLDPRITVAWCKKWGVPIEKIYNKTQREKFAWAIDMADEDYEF

[2] = system: MRC5; test: Cytotoxicity against human MRC5 cells incubated for 48 hrs by CCK8 assay; assay type: cell-based; conditions: MRC5, 48 h
[3] = biological target: T1, DNA topoisomerase 1 (Homo sapiens); test: Inhibition of recombinant human Top1 expressed in Saccharomyces cerevisiae null strain RS190 assessed as decrease in relaxation of supercoiled plasmid DNA at 100 uM using supercoiled plasmid DNA as substrate incubated for 15 sec by red staining based DNA relaxation assay relative to camptothecin
[4] = biological target: T1, DNA topoisomerase 1 (Homo sapiens); test: Inhibition of recombinant human Top1 expressed in Saccharomyces cerevisiae null strain RS190 assessed as decrease in relaxation of supercoiled plasmid DNA at 100 uM using supercoiled plasmid DNA as substrate incubated for 1 min by red staining based DNA relaxation assay relative to camptothecin
[5] = system: SK-OV-3; test: Antiproliferative activity against human SKOV3 cells incubated for 48 hrs by CCK8 assay; assay type: functional, cell-based; conditions: SK-OV-3, 48 h
[6] = system: A549; test: Antiproliferative activity against human A549 cells incubated for 48 hrs by CCK8 assay; assay type: functional, cell-based; conditions: A549, 48 h

SMILES | inhibition [1] [%] | IC50 [2] [µM] | inhibition [3] [%] | inhibition [4] [%] | IC50 [5] [µM] | IC50 [6] [µM]
c1ccc(-c2c3c(nc4cccnc24)-c2ccccc2OC3)cc1 | 2 | > 50 | 30 | 14 | > 50 | > 50
O=C1Oc2ccccc2[C@H]2Nc3ccc(Br)nc3[C@@H](c3ccccc3)[C@H]12 (relative stereo) | 4 | > 50 | 4 | 4 | > 50 | > 50
COc1ccc(-c2c3c(nc4cccnc24)-c2ccccc2OC3)cc1 | 29 | > 50 | 29 | 30 | > 50 | 17.9
COc1ccc2nc3c(c(-c4ccccc4)c2n1)c(=O)oc1ccccc13 | 12 | > 50 | 72 | 12 | > 50 | > 50
c1ccc([C@@H]2c3ncccc3N[C@@H]3c4ccccc4OC[C@@H]23)cc1 (relative stereo) | 1 | > 50 | 5 | 4 | 1.75 | 1.03
O=c1oc2ccccc2c2nc3ccc(Br)nc3c(-c3ccccc3)c12 | 4 | > 50 | 4 | 4 | > 50 | 29
O=c1oc2ccc(F)cc2c2nc3cccnc3c(-c3ccccc3)c12 | 2 | > 50 | 26 | 2 | > 50 | > 50
Fc1ccc2c(c1)-c1nc3cccnc3c(-c3ccccc3)c1CO2 | 2 | > 50 | 2 | 2 | > 50 | > 50
Cc1ccc2c(c1)[C@H]1Nc3cccnc3[C@@H](c3ccccc3)[C@@H]1CO2 (relative stereo) | 19 | > 50 | 70 | 69 | 12.7 | 7.25
COc1ccc2c(n1)[C@@H](c1ccccc1)[C@@H]1C(=O)Oc3ccccc3[C@H]1N2 (relative stereo) | 4 | > 50 | 4 | 4 | > 50 | > 50
COc1ccc2c(n1)[C@@H](c1ccccc1)[C@@H]1COc3ccccc3[C@H]1N2 (relative stereo) | 12 | > 50 | 81 | 26 | > 50 | 5.43
Brc1ccc2nc3c(c(-c4ccccc4)c2n1)COc1ccccc1-3 | 4 | > 50 | 4 | 4 | > 50 | > 50
Fc1ccc(-c2c3c(nc4cccnc24)-c2ccccc2OC3)cc1F | 6 | > 50 | 84 | 6 | > 50 | > 50
COc1ccc2nc3c(c(-c4ccccc4)c2n1)COc1ccccc1-3 | 15 | > 50 | 86 | 16 | > 50 | 11.7
Fc1ccc2c(c1)[C@H]1Nc3cccnc3[C@@H](c3ccccc3)[C@@H]1CO2 (relative stereo) | 1 | > 50 | 2 | 1 | > 50 | 11.3
O=C1Oc2ccccc2[C@H]2Nc3cccnc3[C@@H](c3ccccc3)[C@H]12 (relative stereo) | 5 | > 50 | 5 | 7 | > 50 | 25.4
Cc1ccc2c(c1)-c1nc3cccnc3c(-c3ccccc3)c1CO2 | 2 | > 50 | 2 | 2 | > 50 | > 50
O=c1oc2ccccc2c2nc3cccnc3c(-c3ccccc3)c12 | 2 | > 50 | 25 | 2 | > 50 | 9.03
O=C1Oc2ccc(F)cc2[C@H]2Nc3cccnc3[C@@H](c3ccccc3)[C@H]12 (relative stereo) | 2 | > 50 | 30 | 25 | > 50 | > 50
